Blank lines part the entries; values can stand above or below the compound they belong to.
Key:
THP-1 [1] = assay: Drug level in human THP1 cells at 10 mg/L at pH =< 6.5; format: ADME, cell-based
THP-1 [2] = assay: Drug level in human THP1 cells at 10 mg/L after 2 hrs in presence 250 uM efflux pump inhibitor gemfibrozil relative to control; format: ADME, cell-based; conditions: thp-1, 2 h
THP-1 [3] = assay: Drug level in human THP1 cells at 10 mg/L after 2 hrs in presence 10 uM efflux pump inhibitor verapamil relative to control; format: ADME, cell-based; conditions: thp-1, 2 h
THP-1 [4] = assay: Drug level in human THP1 cells at 10 mg/L after 2 hrs in presence of 50 uM proton inophore monesin relative to control; format: ADME, cell-based; conditions: thp-1, 2 h
THP-1 [5] = assay: Drug level in human THP1 cells at 50 mg/L after 2 hrs in presence of 50 uM proton inophore monesin relative to control; format: ADME, cell-based; conditions: thp-1, 2 h
THP-1 [6] = assay: Drug level in human THP1 cells at 50 mg/L after 30 mins at pH 6; format: ADME, cell-based; conditions: thp-1, pH 6, 0.5 h
THP-1 [7] = assay: Drug level in human THP1 cells at 250 mg/L after 30 mins at pH 6; format: ADME, cell-based; conditions: thp-1, pH 6, 0.5 h
THP-1 [8] = assay: Drug level in human THP1 cells at 250 mg/L after 2 hrs in presence of 50 uM proton inophore monesin relative to control; format: ADME, cell-based; conditions: thp-1, 2 h
[9] = Half life in human THP1 cells at 4 mg/L; format: ADME, cell-based; conditions: THP-1 cells
J774 [10] = assay: Drug level in mouse J774 cells at 50 mg/L at pH 6.5; format: ADME, cell-based; conditions: j774, pH 6.5
[11] = Half life in mouse J774 cells at 4 mg/L; format: ADME, cell-based
[12] = Ratio of drug level for cellular to extracellular region of human PMNC cells at 10 to 50 ug/ml; format: ADME, cell-based
THP-1 [13] = assay: Drug level in human THP1 cells at 50 mg/L at pH < 7 in presence of 50 uM proton inophore monesin; format: ADME, cell-based
J774 [14] = assay: Drug level in mouse J774 cells at 50 mg/L after 2 hrs in presence of < 10% fetal calf serum relative to control; format: ADME, cell-based; conditions: j774, 2 h
THP-1 [15] = assay: Drug level in human THP1 cells at 50 mg/L after 2 hrs in presence 60 mM deoxyglucose and 5 mM NaN3 relative to control; format: ADME, cell-based; conditions: thp-1, 2 h
THP-1 [16] = assay: Drug level in human THP1 cells at 50 mg/L after 2 hrs in presence of < 10% fetal calf serum relative to control; format: ADME, cell-based; conditions: thp-1, 2 h
THP-1 [17] = assay: Drug level in human THP1 cells at 50 mg/L after 2 hrs in presence 250 uM efflux pump inhibitor gemfibrozil relative to control; format: ADME, cell-based; conditions: thp-1, 2 h
THP-1 [18] = assay: Drug level in human THP1 cells at 50 mg/L after 2 hrs in presence 10 uM efflux pump inhibitor verapamil relative to control; format: ADME, cell-based; conditions: thp-1, 2 h
[19] = Half life in human PMNC at 4 mg/L; format: ADME
THP-1 [20] = assay: Ratio of drug level for cellular to extracellular region of human THP-1 cells at 10 to 50 ug/ml; format: ADME, cell-based
J774 [21] = assay: Drug level in mouse J774 cells at 50 mg/L in presence of 50 uM proton inophore monesin relative to control; format: ADME, cell-based
THP-1 [22] = assay: Drug level in human THP1 cells at 50 mg/L at pH 6.5; format: ADME, cell-based; conditions: thp-1, pH 6.5

Drug uptake (THP-1 [1]): 10%
Ratio (THP-1 [2]): 1.7
Ratio (THP-1 [3]): 1.7
Structure (SMILES): CC[C@H]1OC(=O)[C@H](C)[C@@H](O[C@H]2C[C@@](C)(OC)[C@@H](O)[C@H](C)O2)[C@H](C)[C@@H](O[C@@H]2O[C@H](C)C[C@H](N(C)C)[C@H]2O)[C@](C)(O)C[C@@H](C)CN(C)[C@H](C)[C@@H](O)[C@]1(C)O [AZITHROMYCIN]

Drug uptake (THP-1 [4]): 10%
Drug uptake (THP-1 [5]): 20%
Drug uptake (THP-1 [6]): 25%
Drug uptake (THP-1 [7]): 25%
Drug uptake (THP-1 [8]): 25%
Structure (SMILES): CC(=O)NC[C@H]1CN(c2ccc(N3CCOCC3)c(F)c2)C(=O)O1 [LINEZOLID]

half-life at 4 mg/L [9]: 6 min
Drug uptake (J774 [10]): Active
half-life at 4 mg/L [11]: 6 min
Ratio [12]: 8.5
Drug uptake (THP-1 [13]): Active
Drug uptake (THP-1 [4]): 10%
Drug uptake (THP-1 [5]): 20%
Drug uptake (J774 [14]): Active
Drug uptake (THP-1 [6]): 25%
Drug uptake (THP-1 [15]): Active
Drug uptake (THP-1 [16]): Active
Drug uptake (THP-1 [17]): Active
Drug uptake (THP-1 [18]): Active
Drug uptake (THP-1 [7]): 25%
half-life at 4 mg/L [19]: 6 min
Ratio (THP-1 [20]): 8.5
Drug uptake (J774 [21]): 30%
Drug uptake (THP-1 [8]): 25%
Drug uptake (THP-1 [22]): Active
Structure (SMILES): CC(=O)NC[C@H]1CN(c2ccc(-c3ccc(CNCc4cnn[nH]4)cc3)c(F)c2)C(=O)O1 [RADEZOLID]
